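Five concentrations, 48 hours, 96-well plates. The concentration for 50% growth inhibition is given as GI50.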 Active and inactive are the calls of the source. No stated cut-off is given here; in the data, active = GI50 up to about 1.1 µM and inactive = higher.
Tests used:
Test in all cases: DTP human tumour cell line panel, 48 h
TK-10 = test system: TK-10
HCC 2998 = test system: HCC 2998
RPMI-8226 = test system: RPMI-8226
OVCAR-8 = test system: OVCAR-8
M14 = test system: M14
SF-295 = test system: SF-295
SK-OV-3 = test system: SK-OV-3
NCI-H23 = test system: NCI-H23
UACC-257 = test system: UACC-257
KM12 = test system: KM12
IGROV-1 = test system: IGROV-1
UO-31 = test system: UO-31
ACHN = test system: ACHN
OVCAR-5 = test system: OVCAR-5
OVCAR-3 = test system: OVCAR-3
NCI-H522 = test system: NCI-H522
OVCAR-4 = test system: OVCAR-4

Measured: GI50

Cc1nc(-n2nc(-c3ccccc3)cc2-c2ccccc2)sc1C(/C=C/c1ccc([N+](=O)[O-])cc1)=N/NC(=O)c1ccncc1
inactive: TK-10 32.6 µM | HCC 2998 5.82 µM | RPMI-8226 7.16 µM | OVCAR-8 28.9 µM | M14 20.2 µM | SF-295 29 µM | SK-OV-3 44.8 µM | NCI-H23 14.8 µM | UACC-257 41.7 µM | KM12 4.06 µM | IGROV-1 21.1 µM | UO-31 11.7 µM | ACHN 23.6 µM | OVCAR-5 53.1 µM | OVCAR-3 12.6 µM

O=c1[nH]c(Br)nc2c(N3CCCCC3)c[nH]c12
inactive: TK-10 > 100 µM | NCI-H522 28.3 µM | RPMI-8226 > 100 µM | OVCAR-8 > 100 µM | M14 > 100 µM | SF-295 > 100 µM | SK-OV-3 > 100 µM | NCI-H23 > 100 µM | UACC-257 > 100 µM | KM12 > 100 µM | OVCAR-4 > 100 µM | IGROV-1 > 100 µM | UO-31 > 100 µM | ACHN > 100 µM | OVCAR-5 > 100 µM | OVCAR-3 > 100 µM

COc1cc(Cl)c2c3c(c(C(C)=O)oc13)CCC2
inactive: TK-10 > 100 µM | HCC 2998 > 100 µM | RPMI-8226 86.9 µM | OVCAR-8 > 100 µM | M14 > 100 µM | SF-295 > 100 µM | SK-OV-3 > 100 µM | NCI-H23 > 100 µM | UACC-257 > 100 µM | OVCAR-4 > 100 µM | IGROV-1 > 100 µM | ACHN > 100 µM | OVCAR-3 > 100 µM

CC(C)C1N2CCCCC2[C@@H]2c3[nH]c4ccccc4c3CCN12 (stereo partly drawn)
inactive: HCC 2998 > 100 µM | RPMI-8226 > 100 µM | OVCAR-8 > 100 µM | M14 > 100 µM | SF-295 > 100 µM | SK-OV-3 > 100 µM | NCI-H23 > 100 µM | UACC-257 > 100 µM | OVCAR-4 > 100 µM | IGROV-1 > 100 µM | UO-31 > 100 µM | ACHN > 100 µM | OVCAR-5 > 100 µM | OVCAR-3 > 100 µM

C[C@]12CC[C@H](OC(=O)Nc3ccccc3)CC1=CC[C@@H]1C2CC[C@]2(C)/C(=N/OC(=O)Nc3ccccc3)CCC12 (stereo partly drawn)
inactive: TK-10 6.61 µM | HCC 2998 > 100 µM | RPMI-8226 5.57 µM | OVCAR-8 22.3 µM | M14 12.5 µM | SF-295 10 µM | SK-OV-3 > 100 µM | NCI-H23 > 100 µM | KM12 8.15 µM | OVCAR-4 5.66 µM | IGROV-1 4.19 µM | UO-31 1.92 µM | ACHN 7.14 µM | OVCAR-5 70.5 µM | OVCAR-3 > 100 µM

O=c1[nH]c2cc(-c3ccccc3)nc-2nn1-c1c(Cl)cc(Cl)cc1Cl
inactive: TK-10 28.6 µM | NCI-H522 28.8 µM | HCC 2998 4.03 µM | RPMI-8226 24.3 µM | OVCAR-8 37.4 µM | M14 23.9 µM | SF-295 32.1 µM | SK-OV-3 25.8 µM | NCI-H23 24.9 µM | UACC-257 29.5 µM | KM12 20.5 µM | IGROV-1 38.5 µM | UO-31 22.3 µM | OVCAR-5 39.4 µM | OVCAR-3 23.2 µM

COc1ccc2c(c1)[n+]([O-])c(-c1nc3ccccc3s1)c(N)[n+]2[O-]
inactive: NCI-H522 51.3 µM | RPMI-8226 35.5 µM | OVCAR-8 > 100 µM | M14 > 100 µM | SF-295 > 100 µM | SK-OV-3 > 100 µM | NCI-H23 64.9 µM | UACC-257 63.5 µM | KM12 > 100 µM | OVCAR-4 > 100 µM | IGROV-1 > 100 µM | UO-31 34 µM | ACHN 93.1 µM | OVCAR-5 > 100 µM | OVCAR-3 78.7 µM

COC(=O)Cc1nn2c(nc1=O)sc1ccc3ccccc3c12
inactive: NCI-H522 37.2 µM | HCC 2998 > 100 µM | OVCAR-8 43.2 µM | M14 > 100 µM | SK-OV-3 > 100 µM | NCI-H23 > 100 µM | UACC-257 > 100 µM | KM12 > 100 µM | OVCAR-4 > 100 µM | IGROV-1 > 100 µM | UO-31 > 100 µM | ACHN 56.9 µM | OVCAR-5 > 100 µM | OVCAR-3 > 100 µM

CC(=O)CCCCO
inactive: TK-10 > 100 µM | NCI-H522 > 100 µM | RPMI-8226 > 100 µM | OVCAR-8 > 100 µM | M14 > 100 µM | SF-295 > 100 µM | SK-OV-3 > 100 µM | NCI-H23 > 100 µM | UACC-257 > 100 µM | KM12 > 100 µM | OVCAR-4 > 100 µM | IGROV-1 > 100 µM | UO-31 > 100 µM | ACHN > 100 µM | OVCAR-5 > 100 µM | OVCAR-3 > 100 µM

COC1(OC)CC2C=C(S(=O)(=O)c3ccccc3)C1N(Cc1ccccc1)C2=O (stereo not drawn)
inactive: TK-10 26.6 µM | NCI-H522 16.4 µM | HCC 2998 60.3 µM | OVCAR-8 23 µM | M14 18.9 µM | SF-295 50.9 µM | SK-OV-3 88.1 µM | NCI-H23 15.2 µM | UACC-257 22.6 µM | KM12 24.7 µM | OVCAR-4 29.2 µM | IGROV-1 37.2 µM | UO-31 35.5 µM | ACHN 41.3 µM | OVCAR-3 17.1 µM

COc1ccc(/C=c2\sc3nnc(CCC(=O)Nc4cccc(C(F)(F)F)c4)n3c2=O)cc1
inactive: TK-10 > 100 µM | HCC 2998 > 100 µM | RPMI-8226 38.4 µM | OVCAR-8 83.4 µM | M14 > 100 µM | SF-295 > 100 µM | SK-OV-3 > 100 µM | NCI-H23 > 100 µM | UACC-257 > 100 µM | KM12 > 75.9 µM | OVCAR-4 > 100 µM | IGROV-1 > 100 µM | UO-31 > 100 µM | ACHN > 100 µM | OVCAR-5 > 100 µM | OVCAR-3 39.8 µM

C=CCNC(=O)N(CCCC(NC(C)=O)C(=O)NCc1ccccc1)Cc1ccccc1 (stereo not drawn)
inactive: TK-10 > 100 µM | NCI-H522 > 100 µM | RPMI-8226 > 100 µM | OVCAR-8 > 100 µM | M14 > 100 µM | SF-295 > 100 µM | SK-OV-3 > 100 µM | NCI-H23 > 100 µM | UACC-257 > 100 µM | KM12 > 100 µM | OVCAR-4 > 100 µM | IGROV-1 > 100 µM | UO-31 > 100 µM | ACHN > 100 µM | OVCAR-5 > 100 µM | OVCAR-3 > 100 µM

O=C(CSc1nc(=O)c(-c2ccccc2NC(=O)C(F)(F)F)n[nH]1)NC(=O)Nc1ccccc1
inactive: TK-10 45.9 µM | NCI-H522 76.4 µM | HCC 2998 > 100 µM | OVCAR-8 > 100 µM | M14 > 100 µM | SF-295 > 100 µM | SK-OV-3 39 µM | NCI-H23 > 100 µM | KM12 > 100 µM | IGROV-1 > 100 µM | UO-31 38.1 µM | OVCAR-5 > 100 µM | OVCAR-3 > 100 µM
